Experimental data published in ChEMBL document CHEMBL3286384, “Synthesis, cytotoxicity, antimicrobial and anti-biofilm activities of novel pyrazolo[3,4-b]pyridine and pyrimidine functionalized 1,2,3-triazole derivatives” (Bioorg Med Chem Lett, 2014).
Converted amounts (≈) assume the structure as drawn. The source made the active and inactive calls. The calls are words filed in the database; no cut-off is given here.

What was measured:
A549 = assay: Cytotoxicity against human A549 cells after 24 hrs by MTT assay; format: functional, cell-based; details: A549, 24 h
MCF7 = assay: Cytotoxicity against human MCF7 cells after 24 hrs by MTT assay; format: functional, cell-based; details: MCF7, 24 h
DU-145 = assay: Cytotoxicity against human DU145 cells after 24 hrs by MTT assay; format: functional, cell-based; details: DU-145, 24 h
HeLa = assay: Cytotoxicity against human HeLa cells after 24 hrs by MTT assay; format: functional, cell-based
Micrococcus luteus [1] = assay: Antimicrobial activity against Micrococcus luteus MTCC 2470 after 24 hrs by well diffusion method; format: functional; details: MTCC 2470, 24 h
Staphylococcus aureus [2] = assay: Antimicrobial activity against Staphylococcus aureus MTCC 96 after 24 hrs by well diffusion method; format: functional; details: MTCC 96, 24 h
Staphylococcus aureus [3] = assay: Antimicrobial activity against Staphylococcus aureus MLS-16 MTCC 2940 after 24 hrs by well diffusion method; format: functional; details: MLS-16 MTCC 2940, 24 h
Bacillus subtilis [4] = assay: Antimicrobial activity against Bacillus subtilis MTCC 121 after 24 hrs by well diffusion method; format: functional; details: MTCC 121, 24 h
Escherichia coli [5] = assay: Antimicrobial activity against Escherichia coli MTCC 739 after 24 hrs by well diffusion method; format: functional; details: MTCC 739, 24 h
Pseudomonas aeruginosa [6] = assay: Antimicrobial activity against Pseudomonas aeruginosa MTCC 2453 after 24 hrs by well diffusion method; format: functional; details: MTCC 2453, 24 h
Raoultella planticola [7] = assay: Antimicrobial activity against Klebsiella planticola MTCC 530 after 24 hrs by well diffusion method; format: functional; details: MTCC 530, 24 h
Candida albicans = details: MTCC 3017
Description: Antimicrobial activity against Candida albicans MTCC 3017 after 24 hrs by well diffusion method

Micrococcus luteus [8] = assay: Bactericidal activity against Micrococcus luteus MTCC 2470 after 24 hrs by agar plating method; format: functional; details: MTCC 2470, 24 h
Staphylococcus aureus [9] = assay: Bactericidal activity against Staphylococcus aureus MTCC 96 after 24 hrs by agar plating method; format: functional; details: MTCC 96, 24 h
Staphylococcus aureus [10] = assay: Bactericidal activity against Staphylococcus aureus MLS-16 MTCC 2940 after 24 hrs by agar plating method; format: functional; details: MLS-16 MTCC 2940, 24 h
Bacillus subtilis [11] = assay: Bactericidal activity against Bacillus subtilis MTCC 121 after 24 hrs by agar plating method; format: functional; details: MTCC 121, 24 h
Escherichia coli [12] = assay: Bactericidal activity against Escherichia coli MTCC 739 after 24 hrs by agar plating method; format: functional; details: MTCC 739, 24 h
Pseudomonas aeruginosa [13] = assay: Bactericidal activity against Pseudomonas aeruginosa MTCC 2453 after 24 hrs by agar plating method; format: functional; details: MTCC 2453, 24 h
Raoultella planticola [14] = assay: Bactericidal activity against Klebsiella planticola MTCC 530 after 24 hrs by agar plating method; format: functional; details: MTCC 530, 24 h
Micrococcus luteus [15] = assay: Antimicrobial activity against Micrococcus luteus MTCC 2470 assessed as inhibition of biofilm formation after 24 hrs by crystal violet staining-based assay; format: functional, organism-based; details: MTCC 2470, 24 h
Staphylococcus aureus [16] = assay: Antimicrobial activity against Staphylococcus aureus MTCC 96 assessed as inhibition of biofilm formation after 24 hrs by crystal violet staining-based assay; format: functional, organism-based; details: MTCC 96, 24 h
Staphylococcus aureus [17] = assay: Antimicrobial activity against Staphylococcus aureus MLS-16 MTCC 2940 assessed as inhibition of biofilm formation after 24 hrs by crystal violet staining-based assay; format: functional, organism-based; details: MLS-16 MTCC 2940, 24 h
Raoultella planticola [18] = assay: Antimicrobial activity against Klebsiella planticola MTCC 530 assessed as inhibition of biofilm formation after 24 hrs by crystal violet staining-based assay; format: functional, organism-based; details: MTCC 530, 24 h
Pseudomonas aeruginosa [19] = assay: Antimicrobial activity against Pseudomonas aeruginosa MTCC 2453 assessed as inhibition of biofilm formation after 24 hrs by crystal violet staining-based assay; format: functional, organism-based; details: MTCC 2453, 24 h

Row | MIC (Micrococcus luteus [1]) | MIC (Staphylococcus aureus [2]) | MIC (Staphylococcus aureus [3]) | MIC (Bacillus subtilis [4]) | MIC (Escherichia coli [5]) | MIC (Pseudomonas aeruginosa [6]) | MIC (Candida albicans) | Compound | IC50 (A549) | IC50 (MCF7) | IC50 (DU-145) | IC50 (HeLa) | MIC (Raoultella planticola [7]) | also measured
1 |  |  |  |  |  |  |  | Nc1nc(C(F)(F)F)cc(=O)n1Cc1cn(-c2nn(CCC(F)(F)C(F)(F)C(F)(F)C(F)(F)C(F)(F)C(F)(F)C(F)(F)C(F)(F)F)c3nc(C(F)(F)F)ccc23)nn1 | 68.2 µM | > 100 µM | 88.8 µM | > 100 µM |  | 
2 |  |  |  |  |  |  |  | Nc1n[nH]c2nc(C(F)(F)F)ccc12 | 22.4 µM | 58.4 µM | 29.1 µM | 60.2 µM |  | 
3 |  |  |  |  |  |  |  | C=CCn1nc(-n2cc(Cn3c(N)nc(C(F)(F)F)cc3=O)nn2)c2ccc(C(F)(F)F)nc21 | > 100 µM | 20.2 µM | > 100 µM | 18.2 µM |  | 
4 |  |  |  |  |  |  |  | CCCCCCCCCCn1nc(-n2cc(Cn3c(N)nc(C(F)(F)F)cc3=O)nn2)c2ccc(C(F)(F)F)nc21 | 14.3 µM | 15.7 µM | 17.1 µM | 13.4 µM |  | 
5 | > 250 µg/mL | > 250 µg/mL | > 250 µg/mL | > 250 µg/mL | > 250 µg/mL | > 250 µg/mL | inactive | CCCCCCCCn1nc(-n2cc(COc3cc(C(F)(F)F)nc(N)n3)nn2)c2ccc(C(F)(F)F)nc21 | 5.7 µM | 24.7 µM | 6.3 µM | 22.7 µM | > 250 µg/mL | 
6 | 7.8 µg/mL (≈ 16.1 µM) | > 250 µg/mL | > 250 µg/mL | > 250 µg/mL | > 250 µg/mL | > 250 µg/mL | inactive | C=CCn1nc(-n2cc(COc3cc(C(F)(F)F)nc(N)n3)nn2)c2ccc(C(F)(F)F)nc21 | > 100 µM | 19.4 µM | > 100 µM | 18.4 µM | > 250 µg/mL | 
7 | > 250 µg/mL | > 250 µg/mL | > 250 µg/mL | > 250 µg/mL | > 250 µg/mL | > 250 µg/mL | inactive | C#CCn1nc(-n2cc(COc3cc(C(F)(F)F)nc(N)n3)nn2)c2ccc(C(F)(F)F)nc21 | 4.1 µM | > 100 µM | 4.7 µM | > 100 µM | > 250 µg/mL | 
8 |  |  |  |  |  |  |  | CC[C@H]1OC(=O)[C@H](C)[C@@H](O[C@H]2C[C@@](C)(OC)[C@@H](O)[C@H](C)O2)[C@H](C)[C@@H](O[C@@H]2O[C@H](C)C[C@H](N(C)C)[C@H]2O)[C@](C)(O)C[C@@H](C)C(=O)[C@H](C)[C@@H](O)[C@]1(C)O [ERYTHROMYCIN] |  |  |  |  |  | IC50 (Micrococcus luteus [15]): 0.24 µg/mL (≈ 0.327 µM); IC50 (Staphylococcus aureus [16]): 0.32 µg/mL (≈ 0.436 µM); IC50 (Staphylococcus aureus [17]): 0.32 µg/mL (≈ 0.436 µM); IC50 (Raoultella planticola [18]): 0.21 µg/mL (≈ 0.286 µM); IC50 (Pseudomonas aeruginosa [19]): 0.26 µg/mL (≈ 0.354 µM)
9 | 15.6 µg/mL (≈ 26.6 µM) | 7.8 µg/mL (≈ 13.3 µM) | 7.8 µg/mL (≈ 13.3 µM) | 15.6 µg/mL (≈ 26.6 µM) | 7.8 µg/mL (≈ 13.3 µM) | 7.8 µg/mL (≈ 13.3 µM) | inactive | CCCCCCCCCCn1nc(-n2cc(COc3cc(C(F)(F)F)nc(N)n3)nn2)c2ccc(C(F)(F)F)nc21 | 4.2 µM | 37.2 µM | 5.8 µM | 34.3 µM | 7.8 µg/mL (≈ 13.3 µM) | IC50 (Micrococcus luteus [15]): 3.9 µg/mL (≈ 6.66 µM); IC50 (Staphylococcus aureus [16]): 7.8 µg/mL (≈ 13.3 µM); IC50 (Staphylococcus aureus [17]): 3.9 µg/mL (≈ 6.66 µM); IC50 (Raoultella planticola [18]): 3.9 µg/mL (≈ 6.66 µM); IC50 (Pseudomonas aeruginosa [19]): 3.9 µg/mL (≈ 6.66 µM); MBC (Micrococcus luteus [8]): 15.6 µg/mL (≈ 26.6 µM); MBC (Staphylococcus aureus [9]): 15.6 µg/mL (≈ 26.6 µM); MBC (Staphylococcus aureus [10]): 7.8 µg/mL (≈ 13.3 µM); MBC (Bacillus subtilis [11]): 31.2 µg/mL (≈ 53.3 µM); MBC (Escherichia coli [12]): 15.6 µg/mL (≈ 26.6 µM); MBC (Pseudomonas aeruginosa [13]): 15.6 µg/mL (≈ 26.6 µM); MBC (Raoultella planticola [14]): 7.8 µg/mL (≈ 13.3 µM)

Row | Compound | MIC (Micrococcus luteus [1]) | MIC (Staphylococcus aureus [2]) | MIC (Staphylococcus aureus [3]) | MIC (Bacillus subtilis [4]) | MIC (Escherichia coli [5]) | MIC (Pseudomonas aeruginosa [6]) | MIC (Candida albicans) | IC50 (A549) | IC50 (MCF7) | IC50 (DU-145) | IC50 (HeLa) | MIC (Raoultella planticola [7]) | also measured
10 | O=C(O)c1cn(C2CC2)c2cc(N3CCNCC3)c(F)cc2c1=O [CIPROFLOXACIN] | 0.9 µg/mL (≈ 2.72 µM) | 0.9 µg/mL (≈ 2.72 µM) | 0.9 µg/mL (≈ 2.72 µM) | 0.9 µg/mL (≈ 2.72 µM) | 0.9 µg/mL (≈ 2.72 µM) | 0.9 µg/mL (≈ 2.72 µM) | inactive |  |  |  |  | 0.9 µg/mL (≈ 2.72 µM) | MBC (Micrococcus luteus [8]): 0.58 µg/mL (≈ 1.75 µM); MBC (Staphylococcus aureus [9]): 0.58 µg/mL (≈ 1.75 µM); MBC (Staphylococcus aureus [10]): 1.17 µg/mL (≈ 3.53 µM); MBC (Bacillus subtilis [11]): 1.17 µg/mL (≈ 3.53 µM); MBC (Escherichia coli [12]): 0.58 µg/mL (≈ 1.75 µM); MBC (Pseudomonas aeruginosa [13]): 0.58 µg/mL (≈ 1.75 µM); MBC (Raoultella planticola [14]): 1.17 µg/mL (≈ 3.53 µM)
